Test results taken from PubChem BioAssay (NCI).
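Following 48 hours of exposure in 96-well plates, responses at five concentrations were used to interpolate endpoints linearly. GI50 is the concentration that inhibits growth by half. TGI: total growth inhibition.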

Assays:
Assay in all cases: NCI-60 cell line screen, 48 h
SK-MEL-2 melanoma = test system: SK-MEL-2 melanoma
NCI-H226 lung = test system: NCI-H226 lung
786-0 renal = test system: 786-0 renal
UACC-257 melanoma = test system: UACC-257 melanoma
NCI-H522 lung = test system: NCI-H522 lung
OVCAR-4 ovarian = test system: OVCAR-4 ovarian
SF-295 CNS = test system: SF-295 CNS
A498 renal = test system: A498 renal
IGROV1 ovarian = test system: IGROV1 ovarian
NCI-H23 lung = test system: NCI-H23 lung

Compound: CC(Cl)(/C=C/Cl)C(Cl)/C=C/C(Cl)(CCl)CBr (stereo not given)
- TGI (SK-MEL-2 melanoma): 19.8 µM
- TGI (NCI-H226 lung): 22.9 µM
- TGI (786-0 renal): 10.8 µM
- TGI (UACC-257 melanoma): 7.02 µM
- TGI (NCI-H522 lung): 3.33 µM
- TGI (OVCAR-4 ovarian): 9.36 µM
- TGI (SF-295 CNS): 20.2 µM
- TGI (A498 renal): 18.4 µM
- TGI (IGROV1 ovarian): 25.1 µM
- TGI (NCI-H23 lung): 7.16 µM

Compound: Cn1cc(-c2ccc(=O)n(Cc3cccc(-c4ncc(OCCN5CCOCC5)cn4)c3)n2)cn1
- GI50 (SK-MEL-2 melanoma): > 88.3 µM
- TGI (SK-MEL-2 melanoma): > 100 µM
- GI50 (NCI-H226 lung): 23.5 µM
- TGI (NCI-H226 lung): > 100 µM
- GI50 (786-0 renal): > 100 µM
- TGI (786-0 renal): > 100 µM
- GI50 (UACC-257 melanoma): 48.7 µM
- TGI (UACC-257 melanoma): > 100 µM
- GI50 (NCI-H522 lung): 74.8 µM
- TGI (NCI-H522 lung): > 100 µM
- GI50 (OVCAR-4 ovarian): 33.5 µM
- TGI (OVCAR-4 ovarian): > 100 µM
- GI50 (SF-295 CNS): 0.49 µM
- TGI (SF-295 CNS): > 100 µM
- GI50 (A498 renal): 60.1 µM
- TGI (A498 renal): > 100 µM
- GI50 (IGROV1 ovarian): > 76.6 µM
- TGI (IGROV1 ovarian): > 100 µM
- GI50 (NCI-H23 lung): 32.9 µM
- TGI (NCI-H23 lung): > 100 µM

Compound: COC(=O)c1cnc(=O)n(C2CC(O)C(CO)O2)c1 (stereo not given)
- GI50 (SK-MEL-2 melanoma): > 100 µM
- TGI (SK-MEL-2 melanoma): > 100 µM
- GI50 (NCI-H226 lung): > 100 µM
- TGI (NCI-H226 lung): > 100 µM
- GI50 (786-0 renal): > 100 µM
- TGI (786-0 renal): > 100 µM
- GI50 (UACC-257 melanoma): > 100 µM
- TGI (UACC-257 melanoma): > 100 µM
- GI50 (NCI-H522 lung): > 100 µM
- TGI (NCI-H522 lung): > 100 µM
- GI50 (OVCAR-4 ovarian): > 100 µM
- TGI (OVCAR-4 ovarian): > 100 µM
- GI50 (SF-295 CNS): > 100 µM
- TGI (SF-295 CNS): > 100 µM
- GI50 (A498 renal): > 100 µM
- TGI (A498 renal): > 100 µM
- GI50 (IGROV1 ovarian): > 100 µM
- TGI (IGROV1 ovarian): > 100 µM
- GI50 (NCI-H23 lung): > 100 µM
- TGI (NCI-H23 lung): > 100 µM

Compound: COc1cc(-c2cc(C(=O)N3CCN(C(=O)c4ccccc4NCc4ccco4)CC3)nc3cc(-c4ccccc4)nn23)cc(OC)c1OC
- GI50 (SK-MEL-2 melanoma): 2.9 µM
- TGI (SK-MEL-2 melanoma): > 79.4 µM
- GI50 (NCI-H226 lung): 5.48 µM
- TGI (NCI-H226 lung): > 100 µM
- GI50 (786-0 renal): 4.55 µM
- TGI (786-0 renal): > 100 µM
- GI50 (UACC-257 melanoma): 3.92 µM
- TGI (UACC-257 melanoma): > 100 µM
- GI50 (NCI-H522 lung): 0.859 µM
- TGI (NCI-H522 lung): > 26.5 µM
- GI50 (OVCAR-4 ovarian): > 26.1 µM
- TGI (OVCAR-4 ovarian): > 100 µM
- GI50 (SF-295 CNS): 1.59 µM
- TGI (SF-295 CNS): > 93.1 µM
- GI50 (A498 renal): 3.02 µM
- TGI (A498 renal): > 28.4 µM
- GI50 (IGROV1 ovarian): 5.44 µM
- TGI (IGROV1 ovarian): > 100 µM
- GI50 (NCI-H23 lung): 5.5 µM
- TGI (NCI-H23 lung): > 100 µM

Compound: Cc1cc2c(C)c3cc(C)c(N)cc3nc2cc1N
- GI50 (SK-MEL-2 melanoma): 1.3 µM
- TGI (SK-MEL-2 melanoma): 3.85 µM
- GI50 (NCI-H226 lung): 0.864 µM
- TGI (NCI-H226 lung): 4.56 µM
- GI50 (786-0 renal): 0.929 µM
- TGI (786-0 renal): 8.84 µM
- GI50 (UACC-257 melanoma): 2.8 µM
- TGI (UACC-257 melanoma): 9.96 µM
- GI50 (NCI-H522 lung): 0.527 µM
- TGI (NCI-H522 lung): 2.02 µM
- GI50 (OVCAR-4 ovarian): 1.1 µM
- TGI (OVCAR-4 ovarian): 3.92 µM
- GI50 (SF-295 CNS): 0.909 µM
- TGI (SF-295 CNS): 4.87 µM
- GI50 (A498 renal): 0.363 µM
- TGI (A498 renal): 2.01 µM
- GI50 (IGROV1 ovarian): 1.06 µM
- TGI (IGROV1 ovarian): 10.8 µM
- GI50 (NCI-H23 lung): 0.852 µM
- TGI (NCI-H23 lung): 4.28 µM

Compound: CCOC(=O)C1C=C2O[C@@H]3OC4(CCCCC4)O[C@@H]3C2[C@H]2C(=O)C=CC(=O)[C@@]12C(=O)OC (stereo not given in full)
- TGI (SK-MEL-2 melanoma): 30.6 µM
- TGI (NCI-H226 lung): 36.4 µM
- TGI (786-0 renal): 18.7 µM
- TGI (UACC-257 melanoma): 30.8 µM
- TGI (NCI-H522 lung): 14.5 µM
- TGI (OVCAR-4 ovarian): 23.3 µM
- TGI (SF-295 CNS): 32.6 µM
- TGI (A498 renal): 32.6 µM
- TGI (IGROV1 ovarian): 27.6 µM
- TGI (NCI-H23 lung): 45.2 µM

Compound: O=C1C2=C(c3ccccc31)C(c1cccc(Cl)c1)NC(=S)N2 (stereo not given)
- TGI (SK-MEL-2 melanoma): > 100 µM
- TGI (NCI-H226 lung): > 100 µM
- TGI (786-0 renal): > 100 µM
- TGI (UACC-257 melanoma): > 100 µM
- TGI (NCI-H522 lung): > 100 µM
- TGI (OVCAR-4 ovarian): > 100 µM
- TGI (SF-295 CNS): > 100 µM
- TGI (A498 renal): > 100 µM
- TGI (IGROV1 ovarian): > 100 µM
- TGI (NCI-H23 lung): > 100 µM

Compound: O=[N+]([O-])c1ccc(Sc2ncccn2)c([N+](=O)[O-])c1
- GI50 (SK-MEL-2 melanoma): 7.15 µM
- TGI (SK-MEL-2 melanoma): 21.5 µM
- GI50 (NCI-H226 lung): 4.28 µM
- TGI (NCI-H226 lung): 18.2 µM
- GI50 (786-0 renal): 4.59 µM
- TGI (786-0 renal): 16.1 µM
- GI50 (UACC-257 melanoma): 5.33 µM
- TGI (UACC-257 melanoma): 19.1 µM
- GI50 (NCI-H522 lung): 1.64 µM
- TGI (NCI-H522 lung): 3.11 µM
- GI50 (OVCAR-4 ovarian): 2.96 µM
- TGI (OVCAR-4 ovarian): 13.5 µM
- GI50 (SF-295 CNS): 5.93 µM
- TGI (SF-295 CNS): 20 µM
- GI50 (A498 renal): 7.6 µM
- TGI (A498 renal): 20.7 µM
- GI50 (IGROV1 ovarian): 1.27 µM
- TGI (IGROV1 ovarian): 13.6 µM
- GI50 (NCI-H23 lung): 5.28 µM
- TGI (NCI-H23 lung): 19.1 µM

Compound: Nc1cccc2c1C(=O)N(C1CCC(=O)NC1=O)C2=O (stereo not given)
- GI50 (SK-MEL-2 melanoma): > 100 µM
- TGI (SK-MEL-2 melanoma): > 100 µM
- GI50 (NCI-H226 lung): > 100 µM
- TGI (NCI-H226 lung): > 100 µM
- GI50 (786-0 renal): > 100 µM
- TGI (786-0 renal): > 100 µM
- GI50 (UACC-257 melanoma): > 100 µM
- TGI (UACC-257 melanoma): > 100 µM
- GI50 (NCI-H522 lung): > 100 µM
- TGI (NCI-H522 lung): > 100 µM
- GI50 (OVCAR-4 ovarian): > 100 µM
- TGI (OVCAR-4 ovarian): > 100 µM
- GI50 (SF-295 CNS): > 100 µM
- TGI (SF-295 CNS): > 100 µM
- GI50 (A498 renal): > 100 µM
- TGI (A498 renal): > 100 µM
- GI50 (IGROV1 ovarian): > 100 µM
- TGI (IGROV1 ovarian): > 100 µM
- GI50 (NCI-H23 lung): > 100 µM
- TGI (NCI-H23 lung): > 100 µM

Compound: C[C@H]1[C@H](OC(=O)CCC(=O)O)O[C@@H]2O[C@]3(C)CC[C@H]4[C@H](C)CC[C@@H]1[C@@]24OO3
- GI50 (SK-MEL-2 melanoma): 2.86 µM
- TGI (SK-MEL-2 melanoma): 59.8 µM
- GI50 (NCI-H226 lung): 0.956 µM
- TGI (NCI-H226 lung): 34.6 µM
- GI50 (786-0 renal): 1.12 µM
- TGI (786-0 renal): 25.8 µM
- GI50 (UACC-257 melanoma): 3.36 µM
- TGI (UACC-257 melanoma): > 100 µM
- GI50 (NCI-H522 lung): 0.365 µM
- TGI (NCI-H522 lung): 5.43 µM
- GI50 (OVCAR-4 ovarian): 1.28 µM
- TGI (OVCAR-4 ovarian): 28.1 µM
- GI50 (SF-295 CNS): 0.518 µM
- TGI (SF-295 CNS): > 67.3 µM
- GI50 (A498 renal): 5.93 µM
- TGI (A498 renal): 33.8 µM
- GI50 (IGROV1 ovarian): 1.17 µM
- TGI (IGROV1 ovarian): 5.91 µM
- GI50 (NCI-H23 lung): 0.383 µM
- TGI (NCI-H23 lung): 10.7 µM

Compound: COc1ccccc1C(=O)/C=C/c1cc2cccc(OC)c2[nH]c1=O
- GI50 (SK-MEL-2 melanoma): 0.656 µM
- TGI (SK-MEL-2 melanoma): 4.7 µM
- GI50 (NCI-H226 lung): 0.0716 µM
- TGI (NCI-H226 lung): 3.47 µM
- GI50 (786-0 renal): 0.0401 µM
- TGI (786-0 renal): 1.38 µM
- GI50 (UACC-257 melanoma): 1.63 µM
- TGI (UACC-257 melanoma): 9.26 µM
- GI50 (NCI-H522 lung): 0.101 µM
- TGI (NCI-H522 lung): 2.16 µM
- GI50 (OVCAR-4 ovarian): 0.314 µM
- TGI (OVCAR-4 ovarian): 8.37 µM
- GI50 (SF-295 CNS): 0.0256 µM
- TGI (SF-295 CNS): 3.85 µM
- GI50 (A498 renal): 0.0158 µM
- TGI (A498 renal): 0.0788 µM
- GI50 (IGROV1 ovarian): 0.0523 µM
- TGI (IGROV1 ovarian): 2.36 µM
- GI50 (NCI-H23 lung): 0.125 µM
- TGI (NCI-H23 lung): 2.04 µM
